The test system of series [1] is M. avium (ATCC 25291). Put plainly: Antimycobacterial MIC, resazurin microtiter assay. The format is cell-based. Conditions: ATCC25291; Mycobacterium avium; mean of triplicates. For orientation: Alamar Blue is a resazurin reagent that responds to reducing activity.
Series [2] deals with MRSA planktonic cells. Description: Checkerboard assay. The format is cell-based, S. aureus. Here is the method: (§1) The combinations of LCC with tetracycline and vancomycin were evaluated against MSSA and MRSA, respectively, using a microdilution broth checkerboard assay, according to White and collaborators, adapted with the standard procedure established by the CLSI [51, 54]. The fractional inhibitory concentration (FIC) of the combination between LCC and tetracycline or vancomycin was determined using Mueller–Hinton broth culture medium into 96-well plates, with a final inoculum suspension of 5.0 × 10^5 CFU/mL, incubated at 37 °C for 24 h. After incubation, an aqueous resazurin solution (0.02%) was added to the wells and the FIC values (ratio between the MIC of the drug in combination and the MIC of the drug alone) were determined for each drug (Equations (1) and (2)). The fractional inhibitory concentration index (FICI) was calculated using Equation (3). (1) FICLCC=MIC of drug A in combination/MIC of drug A alone (2) FICD=MIC of drug B in combination/MIC of drug B alone FIC Index (FICI) = FICLCC + FICD(3)
(§2) The combination was classified as synergistic (FICI ≤ 0.5), indifferent (0.5 < FICI < 4), and antagonistic (FICI ≥ 4). The assays were performed in triplicate in independent experiments.

Series [3] relates to MSSA planktonic cells. Description: Checkerboard assay. The format is cell-based, S. aureus. How it is done: as §1, §2
Series [4] concerns the target NADH-CoQ reductase. The arrangement: method as in PMID 9621457. Conditions: cited from earlier work.
The test system of series [5] is Vero cells. Also noted: method as in PMID 31749783. Conditions: cited from earlier work.

Structures are written as SMILES. Converted amounts (≈) assume the structure as drawn.

In general, MIC refers to the lowest concentration found to suppress growth. As usually defined, the IC50 is the concentration that inhibits the measured activity by half.

For `COc1c(/C=C/C(=O)c2ccc(O)cc2)ccc(O)c1CC=C(C)C` [LCC, licochalcone C], the MIC in series [1] amounted to 62.5 µg/mL (≈ 185 µM); in series [2] (Staphylococcus aureus, checkerboard, drug alone, read-out: MIC Alone), 12.5 µg/mL; in series [3] (Staphylococcus aureus, checkerboard, drug alone), 12.5 µg/mL. Further, the “MIC Combined” value in series [2] (checkerboard, in combination LCC + VAN) was 6.25 µg/mL; in series [3] (checkerboard, in combination LCC + TC), 3.12 µg/mL. Besides, the “FICLCC (fractional inhibitory concentration for LCC)” value was 0.5 in series [2] (combination LCC + VAN) and 0.25 in series [3] (combination LCC + TC). In addition, the IC50 in series [4] is greater than 100 µM; in series [5], 27.7 µg/mL (≈ 81.9 µM).

Values taken from article PMC11124413, “Synthesis, Antibacterial Effects, and Toxicity of Licochalcone C” (Pharmaceuticals, 2024).
